We go through 16 molecules from patent US12404295B2, “(Hetero)aryl-methyl-thio-beta-D-galactopyranoside derivatives” (Idorsia Pharmaceuticals Ltd, priority 2019, dated 2025).

Molecules are shown by their SMILES. Like-named read-outs stand apart in the source and are kept apart here.

For orientation: IC50 means the midpoint of a concentration-inhibition curve.

Experiment [1] addresses human Gal-3 (hGal-3) (Homo sapiens (Human), UniProt P17931). The experiment in a line: competitive binding assay: biotinylated hGal-3 binding to microplate-adsorbed asialofetuin (ASF). Put shortly: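 Compounds serially diluted in DMSO compete with asialofetuin for biotinylated human Gal-3; plates are incubated 3 h at 4 °C, washed, then treated 1 h at 4 °C with streptavidin-peroxidase (80 ng/mL) and developed with ABTS. IC50 values are means of several measurements.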

The target in experiment [2] is human Gal-1 (hGal-1) (Homo sapiens (Human), UniProt P09382). The experiment in a line: competitive binding assay: biotinylated hGal-1 binding to microplate-adsorbed asialofetuin (ASF). Conditions: Table 15; read-out: IC50 (Galectin-1 inhibition). Put shortly:
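Biotinylated human Gal-1 (300-1000 ng/mL) competes with serially diluted compound for binding to ASF-coated plates, 3 h at 4° C. Bound protein detected with streptavidin-peroxidase and ABTS substrate (spectrophotometric). IC50 given as mean of several measurements.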

Setting [3] is: Gal-3 inhibition, binding of biotinylated hGal-3 to ASF, mean values, read-out: IC50.
Setting [4] is: Table 11, read-out: IC50 (Gal-3 inhibition).
The mark [5] stands for this setting: Table 5, read-out: IC50 (Gal-3 inhibition).
Where [6] appears, read: Table 10, 2-OMe-Gal inhibitors, read-out: IC50 (Gal-3 inhibition).

Sequence of human Gal-3 (hGal-3) (P17931 whole entry): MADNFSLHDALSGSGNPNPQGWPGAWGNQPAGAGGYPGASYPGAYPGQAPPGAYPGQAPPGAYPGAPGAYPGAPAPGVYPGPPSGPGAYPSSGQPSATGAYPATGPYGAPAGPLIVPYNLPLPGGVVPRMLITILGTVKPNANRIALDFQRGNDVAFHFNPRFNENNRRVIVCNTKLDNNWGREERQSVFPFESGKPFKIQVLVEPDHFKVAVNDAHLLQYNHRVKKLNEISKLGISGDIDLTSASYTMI
Sequence of human Gal-1 (hGal-1) (P09382 whole entry): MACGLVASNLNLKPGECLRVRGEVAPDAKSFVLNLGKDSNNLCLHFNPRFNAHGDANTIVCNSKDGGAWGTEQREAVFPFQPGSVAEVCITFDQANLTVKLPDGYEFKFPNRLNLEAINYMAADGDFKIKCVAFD

For `Cc1cccnc1[C@@H](S[C@@H]1O[C@H](CO)[C@H](O)[C@H](n2cc(-c3cc(F)c(F)c(F)c3)nn2)[C@H]1O)C1(O)CCOCC1` [Example 2.41.126R., (2R,3R,4S,5R,6S)-2-(Hydroxymethyl)-6-(((R)-(4-hydroxytetrahydro-2H-pyran-4-yl)(3-methylpyridin-2-yl)methyl)thio)-4-(4-(3,4,5-trifluorophenyl)-1H-1,2,3-triazol-1-yl)tetrahydro-2H-pyran-3,5-diol], the values for the IC50 in experiment [1] (setting [3]) and in experiment [2] were 30 nM and 700 nM, respectively.

For `CO[C@@H]1[C@@H](n2cc(-c3cc(F)c(F)c(F)c3)nn2)[C@@H](O)[C@@H](CO)O[C@H]1S[C@H](c1nccnc1C)C1(O)CCC(F)(F)CC1` [Example 2.44.129R.I., (2R,3R,4S,5R,6S)-6-(((R)-(4,4-Difluoro-1-hydroxycyclohexyl)(3-methylpyrazin-2-yl)methyl)thio)-2-(hydroxymethyl)-5-methoxy-4-(4-(3,4,5-trifluorophenyl)-1H-1,2,3-triazol-1-yl)tetrahydro-2H-pyran-3-ol [1,3-di-deoxy-1-((4,4-difluoro-1-hydroxy-cyclohexan-1-yl)-(3-(-methyl)pyrazin-2-yl)methyl-(R)-thio)-2-O-methyl-3-[4-(3,4,5-trifluorophenyl)-1H-1,2,3-triazol-1-yl]-b-D-galactopyranoside]], the IC50 in experiment [1] (Table 9, 2-OMe-Gal inhibitors, read-out: IC50 (Gal-3 inhibition)) came out at 50 nM; in experiment [2] it was 300 nM.

As to `CC(C)(O)C(S[C@@H]1O[C@H](CO)[C@H](O)[C@H](n2cc(-c3ccc4ccccc4c3)nn2)[C@H]1O)c1ccccc1C(F)(F)F` (stereo partly drawn) [Example 4.31.112, (2S,3R,4S,5R,6R)-2-((2-Hydroxy-2-methyl-1-(2-(trifluoromethyl)phenyl)propyl)thio)-6-(hydroxymethyl)-4-(4-(naphthalen-2-yl)-1H-1,2,3-triazol-1-yl)tetrahydro-2H-pyran-3,5-diol], the IC50 in experiment [1] (setting [3]) stood at 2240 nM; in experiment [2] it was 2270 nM.

For the molecule `CO[C@@H]1[C@@H](n2cc(-c3cc(F)c(F)c(F)c3)nn2)[C@@H](O)[C@@H](CO)O[C@H]1S[C@H](c1noc(C2CC2)c1C)C1(O)CCC(F)(F)CC1` [Example 2.44.145R.I., (2R,3R,4S,5R,6S)-6-(((R)-(5-Cyclopropyl-4-methylisoxazol-3-yl)(4,4-difluoro-1-hydroxycyclohexyl)methyl)thio)-2-(hydroxymethyl)-5-methoxy-4-(4-(3,4,5-trifluorophenyl)-1H-1,2,3-triazol-1-yl)tetrahydro-2H-pyran-3-ol], the IC50 in experiment [1] (setting [4]) turned out to be 250 nM; in experiment [2], 1200 nM.

Turning to `OC[C@H]1O[C@@H](S[C@@H](c2ccccc2C(F)(F)F)C2(O)CC(F)(F)C2)[C@H](O)[C@@H](n2cc(-c3cc(F)c(F)c(F)c3)nn2)[C@H]1O` [Example 2.33.112S.], the IC50 in experiment [1] (setting [5]) is 11300 nM; in experiment [2], 21700 nM.

Take `CO[C@@H]1[C@@H](n2cc(-c3cc(F)c(F)c(F)c3)nn2)[C@@H](O)[C@@H](CO)O[C@H]1S[C@H](c1c(C)cnn1C)C1(O)CCC(F)(F)CC1` [Example 2.44.136R.I., (2R,3R,4S,5R,6S)-6-(((R)-(4,4-Difluoro-1-hydroxycyclohexyl)(1,4-dimethyl-1H-pyrazol-5-yl)methyl)thio)-2-(hydroxymethyl)-5-methoxy-4-(4-(3,4,5-trifluorophenyl)-1H-1,2,3-triazol-1-yl)tetrahydro-2H-pyran-3-ol]: the IC50 in experiment [1] (setting [6]) was 260 nM; in experiment [2], 1900 nM.

On to `Cc1nc(C)c([C@@H](S[C@@H]2O[C@H](CO)[C@H](O)[C@H](n3cc(-c4cc(F)c(F)c(F)c4)nn3)[C@H]2O)C2(O)CCC(F)(F)CC2)nc1C` [Example 2.44.119R., (2S,3R,4S,5R,6R)-2-(((R)-(4,4-Difluoro-1-hydroxycyclohexyl)(3,5,6-trimethylpyrazin-2-yl)methyl)thio)-6-(hydroxymethyl)-4-(4-(3,4,5-trifluorophenyl)-1H-1,2,3-triazol-1-yl)tetrahydro-2H-pyran-3,5-diol], for which the IC50 stood at 30 nM in experiment [1] (setting [5]) and 230 nM in experiment [2].

Turning to `OC[C@H]1O[C@@H](S[C@@H](c2ncccc2C(F)(F)F)C2(O)CCOCC2)[C@H](O)[C@@H](n2cc(-c3cc(F)c(F)c(F)c3)nn2)[C@H]1O` [Example 2.41.125S., (2R,3R,4S,5R,6S)-2-(Hydroxymethyl)-6-(((S)-(4-hydroxytetrahydro-2H-pyran-4-yl)(3-(trifluoromethyl)pyridin-2-yl)methyl)thio)-4-(4-(3,4,5-trifluorophenyl)-1H-1,2,3-triazol-1-yl)tetrahydro-2H-pyran-3,5-diol], the figures for the IC50 in experiment [1] (setting [5]) and in experiment [2] were 1830 nM and 7470 nM, respectively.

With `CO[C@@H]1[C@@H](n2cc(-c3cc(F)c(F)c(F)c3)nn2)[C@@H](O)[C@@H](CO)O[C@H]1S[C@@H](c1nc(C)c(C)nc1C)C1(O)CCC(F)(F)CC1` [Example 2.44.119S.I., (2R,3R,4S,5R,6S)-6-(((S)-(4,4-Difluoro-1-hydroxycyclohexyl)(3,5,6-trimethylpyrazin-2-yl)methyl)thio)-2-(hydroxymethyl)-5-methoxy-4-(4-(3,4,5-trifluorophenyl)-1H-1,2,3-triazol-1-yl)tetrahydro-2H-pyran-3-ol], the IC50 in experiment [1] (setting [4]) worked out at 5110 nM; in experiment [2] it was 28600 nM.

On to `Cc1ccccc1C(S[C@@H]1O[C@H](CO)[C@H](O)[C@H](n2cc(-c3cc(F)c(F)c(F)c3)nn2)[C@H]1O)C1(O)CCCC1` (stereo partly drawn) [Example 2.38.102., (2S,3R,4S,5R,6R)-2-(((1-Hydroxycyclopentyl)(o-tolyl)methyl)thio)-6-(hydroxymethyl)-4-(4-(3,4,5-trifluorophenyl)-1H-1,2,3-triazol-1-yl)tetrahydro-2H-pyran-3,5-diol], for which the IC50 in experiment [1] (setting [5]) was determined as 180 nM; in experiment [2], 2900 nM.

With `OC[C@H]1O[C@@H](S[C@@H](c2ncccc2C2CC2)C2(O)CCC(F)(F)CC2)[C@H](O)[C@@H](n2cc(-c3cc(F)c(F)c(F)c3)nn2)[C@H]1O` [Example 2.44.134S., (2S,3R,4S,5R,6R)-2-(((S)-(3-Cyclopropylpyridin-2-yl)(4,4-difluoro-1-hydroxycyclohexyl)methyl)thio)-6-(hydroxymethyl)-4-(4-(3,4,5-trifluorophenyl)-1H-1,2,3-triazol-1-yl)tetrahydro-2H-pyran-3,5-diol], the IC50 came out at 700 nM in experiment [1] (setting [3]) and 2700 nM in experiment [2].

For the molecule `CC(C)c1cccnc1C(S[C@@H]1O[C@H](CO)[C@H](O)[C@H](n2cc(-c3cc(F)c(F)c(F)c3)nn2)[C@H]1O)C1(O)CCC(F)(F)CC1` (stereo partly drawn) [Example 2.44.132., (2S,3R,4S,5R,6R)-2-(((4,4-Difluoro-1-hydroxycyclohexyl)(3-isopropylpyridin-2-yl)methyl)thio)-6-(hydroxymethyl)-4-(4-(3,4,5-trifluorophenyl)-1H-1,2,3-triazol-1-yl)tetrahydro-2H-pyran-3,5-diol], the IC50 in experiment [1] (setting [3]) amounted to 100 nM; in experiment [2] it was 160 nM.

`Cc1nccnc1[C@H](S[C@@H]1O[C@H](CO)[C@H](O)[C@H](n2cc(-c3cc(F)c(F)c(F)c3)nn2)[C@H]1O)C1(O)CCC(F)(F)CC1` [Example 2.44.129S., (2S,3R,4S,5R,6R)-2-(((S)-(4,4-Difluoro-1-hydroxycyclohexyl)(3-methylpyrazin-2-yl)methyl)thio)-6-(hydroxymethyl)-4-(4-(3,4,5-trifluorophenyl)-1H-1,2,3-triazol-1-yl)tetrahydro-2H-pyran-3,5-diol]: the IC50 in experiment [1] (setting [3]) was found to be 1480 nM; in experiment [2] it was 6300 nM.

For the molecule `Cc1ncccc1C(S[C@@H]1O[C@H](CO)[C@H](O)[C@H](n2cc(-c3cc(F)c(F)c(F)c3)nn2)[C@H]1O)C(C)(C)O` (stereo partly drawn) [Example 2.31.116., (2S,3R,4S,5R,6R)-2-((2-Hydroxy-2-methyl-1-(2-methylpyridin-3-yl)propyl)thio)-6-(hydroxymethyl)-4-(4-(3,4,5-trifluorophenyl)-1H-1,2,3-triazol-1-yl)tetrahydro-2H-pyran-3,5-diol], the IC50 in experiment [1] (setting [3]) amounted to 300 nM; in experiment [2], 3780 nM.

Regarding `CO[C@@H]1[C@@H](n2cc(-c3cc(F)c(F)c(F)c3)nn2)[C@@H](O)[C@@H](CO)O[C@H]1S[C@H](c1nccnc1Cl)C1(O)CCC(F)(F)CC1` [Example 2.44.133R.I., (2R,3R,4S,5R,6S)-6-(((R)-(3-Chloropyrazin-2-yl)(4,4-difluoro-1-hydroxycyclohexyl)methyl)thio)-2-(hydroxymethyl)-5-methoxy-4-(4-(3,4,5-trifluorophenyl)-1H-1,2,3-triazol-1-yl)tetrahydro-2H-pyran-3-ol [1,3-di-deoxy-1-((4,4-difluoro-1-hydroxy-cyclohexan-1-yl)-(3-(-chloro)pyrazin-2-yl)methyl-(R)-thio)-2-O-methyl-3-[4-(3,4,5-trifluorophenyl)-1H-1,2,3-triazol-1-yl]-b-D-galactopyranoside]], the values for the IC50 in experiment [1] (setting [6]) and in experiment [2] were 40 nM and 660 nM, respectively.

Consider `CC(C)(O)C(S[C@@H]1O[C@H](CO)[C@H](O)[C@H](n2cc(-c3cc(F)c(F)c(F)c3)nn2)[C@H]1O)c1ccccc1C(F)(F)F` (stereo partly drawn) [Example 2.31.112., (2S,3R,4S,5R,6R)-2-((2-Hydroxy-2-methyl-1-(2-(trifluoromethyl)phenyl)propyl)thio)-6-(hydroxymethyl)-4-(4-(3,4,5-trifluorophenyl)-1H-1,2,3-triazol-1-yl)tetrahydro-2H-pyran-3,5-diol], for which the IC50 in experiment [1] (setting [3]) was 250 nM; in experiment [2], 5230 nM.
